Measurements reported in patent publication US20080306243A1, “Hla-Binding Peptide, and Dna Fragment and Recombinant Vector Coding for Said Hla-Binding Peptide” (NEC CORPORATION, priority 2005, published 2008).
Where two headings read alike, the source gives them in different places. Ends that are not written are not given here.

Legend:
HLA-A2402 molecule = HLA-A2402 molecule (Homo sapiens, UniProt P04439, D101N/D140Y/D185E/E176V/E190D/F33S/G103R/G107R/I119L/I121M/I306V/K335N/L105A/L180Q/L300P/N151K/N90K/Q86E/Q94H/R106L/R138H/R89G/T104I/T345S/V100E/W191G/Y123F); experiment: Experiment of binding peptide to HLA-A2402 molecule (C1R-A24 cells, flow cytometry)
Experimental: (§1) The ability of a peptide to bind to an HLA-A2402 molecule, which is a product of the HLA-A*2402 gene, was measured using C1R-A24 cells expressing the HLA-A*2402 gene (cells prepared by Professor Masafumi Takiguchi, Kumamoto University being supplied with permission by Assistant Professor Masaki Yasukawa, Ehime University).
(§2) C1R-A24 cells were first exposed to acidic conditions at a pH of 3.3 for 30 seconds, thus dissociating and removing a light chain β2m, which is associated with HLA class I molecules in common, and an endogenous peptide originally bound to the HLA-A2402 molecule. After neutralization, purified β2m was added to C1R-A24 cells, the obtained product was added to serial dilutions of a peptide, and incubated on ice for 4 hours. Staining was carried out using fluorescently labeled monoclonal antibody 17A12, which recognizes association (MHC-pep) of the three members, that is, HLA-A2402 molecule, the peptide, and β2m, which had reassociated during the incubation.
(§3) Subsequently, the MHC-pep count per C1R-A24 cell (proportional to the strength of fluorescence of the above-mentioned fluorescent antibody) was quantitatively measured using an FACScan fluorescence-activated cell sorter (Becton Dickinson Biosciences). A binding dissociation constant Kd value between the HLA-A24 molecule and the peptide was calculated from the average strength of fluorescence per cell by a published method (Udaka et al., Immunogenetics, 51, 816-828, 2000).

[1] = system: human HLA-A type molecule; experiment: Binding experiments summarised for HLA-A type molecules
Experimental: as §1, §2, §3
The ability of a peptide to bind to an HLA-A0201 molecule, which is a product of the HLA-A*0201 gene, was measured using strain JY cells expressing the HLA-A*0201 (obtained from ATCC (American Type Culture Collection)).
JY cells were first exposed to acidic conditions at a pH of 3.8 for 30 seconds, thus dissociating and removing a light chain β2m and an endogenous peptide, which were noncovalently associated with the HLA-A0201 molecule. After neutralization, a reassociation experiment was carried out. The above-mentioned JY cells and the purified β2m were added to stepped serial dilutions of peptide for which the binding ability was to be measured, and incubation was carried out on ice for 4 hours. HLA-A0201 molecules that had reassociated up to this point were stained using the associating type specific fluorescently-labeled monoclonal antibody BB7.2.
Subsequently, the amount of fluorescence per cell was measured using a flow cytometer and a dissociation constant Kd value was calculated by a published method (Udaka et al., Immunogenetics, 51, 816-828, 2000).
(§4) The ability of a peptide to bind to an HLA-A0206 molecule, which is a product of the HLA-A*0206 gene, was measured using RA2.6 cells (cell strain newly prepared in Kochi University), wherein cDNA of the HLA-A*0206 gene is expressed in RAMS cells, which are mouse peptide transporter TAP-deficient cells.
(§5) RA2.6 cells were first cultured overnight at 26° C., serial dilutions of peptide were added to HLA-A0206 molecules having no peptide bound thereto that were deposited on the cell surface, and binding was carried out at room temperature for 30 minutes.
(§6) Subsequently, culturing was carried out at 37° C. for 3.5 hours, empty HLA-A0206 molecules to which no peptide were bound was denatured, and the tertiary structure was lost.
(§7) The cells were stained by adding thereto fluorescently labeled monoclonal antibody 17A10 or 17A12, which specifically recognize the peptide-binding HLA-A0206 molecule, and incubating on ice for 20 minutes.
(§8) Subsequently, the amount of fluorescence per cell was measured using a flow cytometer, and a dissociation constant Kd value was calculated by a published method (Udaka et al., Immunogenetics, 51, 816-828, 2000).

HLA-A0206 molecule = molecular target: T1, HLA-A0206 molecule (Homo sapiens, UniProt P04439, D140Y/D185E/D98H/E176V/E277Q/F33Y/G131W/G231S/I119V/I121R/I166T/I218V/L300P/L318F/N151K/N90K/P208A/P217A/Q86G/Q94H/R138H/R169H/T345S); experiment: Experiment of binding peptide to HLA-A0206 molecule (RA2.6 cells, flow cytometry)
T1 construct: expressed in transfected cells; host or cells: RA2.6 cells (RAMS mouse TAP-deficient cells expressing HLA-A*0206 cDNA)
Experimental: as §4, §5, §6, §7, §8

HLA-A0201 molecule = HLA-A0201 molecule (Homo sapiens, UniProt P04439, D140Y/D185E/D98H/E176V/E277Q/G131W/G231S/I119V/I121R/I166T/I218V/L300P/L318F/N151K/N90K/P208A/P217A/Q86G/Q94H/R138H/R169H/T345S); experiment: Experiment of binding peptide to HLA-A0201 molecule (JY cells, flow cytometry); details: expressed as -log Kd value
[2] = binding to HLA-A2402 molecule, C1R-A24 cells, read-out: BINDING EXPERIMENT DATA (converted)
[3] = binding to HLA-A0206 molecule, RA2.6 cells, read-out: BINDING EXPERIMENT DATA (converted)

Row | Molecule | Kd (HLA-A2402 molecule; [2]) [nM] | binding to a human HLA-A type molecule ([1]; result in words) | other results
1 | QVFQVSHSF [compound 5] | 47.8 | experimentally confirmed to bind | –
2 | WVLTAAHCI [compound 20] | – | – | Kd (HLA-A0206 molecule): 1130 nM
3 | FHPEDTGQV [compound 13] | – | – | Kd (HLA-A0201 molecule): 2960 nM
4 | CC(C)C[C@H](NC(=O)[C@@H](NC(=O)CN)C(C)C)C(=O)N[C@H](C(=O)N[C@@H](Cc1c[nH]cn1)C(=O)N1CCC[C@H]1C(=O)N[C@@H](CCC(N)=O)C(=O)N[C@@H](Cc1c[nH]c2ccccc12)C(=O)N[C@H](C(=O)O)C(C)C)C(C)C [compound 19] | – | – | Kd (HLA-A0206 molecule; [3]): 525 nM
5 | ILLGRHSLF [compound 3] | 33.5 | experimentally confirmed to bind | –
6 | CC(C)C[C@H](NC(=O)[C@@H](NC(=O)[C@H](Cc1c[nH]c2ccccc12)NC(=O)[C@H](CCC(N)=O)NC(=O)[C@@H]1CCCN1C(=O)[C@H](Cc1c[nH]cn1)NC(=O)[C@@H](NC(=O)[C@H](CC(C)C)NC(=O)[C@@H](N)C(C)C)C(C)C)C(C)C)C(=O)O [compound 9] | 458 | experimentally confirmed to bind | –
7 | WVPVVFLTL [compound 24] | – | – | Kd (HLA-A0206 molecule; [3]): 182 nM
8 | GVLQGITSW [compound 8] | 4200 | experimentally confirmed to bind | –
9 | VHPQKVTKF [compound 7] | 223 | experimentally confirmed to bind | –
10 | ILSRIVGGW [compound 6] | 62 | experimentally confirmed to bind | –
11 | CC(C)C[C@H](N)C(=O)N[C@H](C(=O)N[C@@H](C)C(=O)N[C@@H](CO)C(=O)N[C@@H](CCCNC(=N)N)C(=O)NCC(=O)N[C@@H](CCCNC(=N)N)C(=O)N[C@@H](C)C(=O)N[C@H](C(=O)O)C(C)C)C(C)C [compound 22] | – | – | Kd (HLA-A0206 molecule; [3]): 5580 nM
12 | DLPTQEPAL [compound 27] | – | – | Kd (HLA-A0206 molecule; [3]): 5440 nM
13 | WVPVVFLTL [compound 2] | 50.9 | experimentally confirmed to bind | –
14 | WVLTAAHCI [compound 12] | – | – | Kd (HLA-A2402 molecule): 23200 nM; binding to a human HLA-A type molecule [1]: experimentally confirmed to bind
15 | DLPTQEPAL [compound 4] | 5870 | experimentally confirmed to bind | –
